Test results taken from patent publication US11806555B2, “Methods for treating hair loss disorders” (THE TRUSTEES OF COLUMBIA UNIVERSITY IN THE CITY OF NEW YORK, priority 2010, dated 2023).
Entries after “also recorded” stand apart in the source; their conditions may differ. Where two headings read alike, the source gives them in different places.

What was measured:
[1] = rodent; cited from earlier work
[2] = Active (n = 149); cited from earlier work
[3] = tested on: Th1 and Th17 transcript markers and keratin 16; details: cited from earlier work
[4] = all dose groups; cited from earlier work
[5] = tested on: epidermal thickening and dermal inflammation; details: in vivo; cited from earlier work
[6] = tested on: telogen hair follicles of normal C57BL/6 mice; assay: induction of anagen by topical treatment of normal mice in telogen; format: in vivo, mouse; details: for proliferation in the telogen hair follicle (Ki67) / keratinocyte matrix cells / induction of anagen: vs vehicle; for induction of anagen: topical, mice in telogen
Procedure: 7-8 weeks old animals in telogen were treated with controls or JAK STAT inhibitors.
Right half of each mouse was administered topical drug, left half of each mouse was treated with DMSO alone.
To test whether inhibition of JAK-STAT signaling could therefore trigger the telogen-to-anagen transition, a topical JAK3 inhibitor was applied to test whether anagen could be induced in normal mouse skin in telogen.

dermal sheath cells = assay: IL-15-induced LAK cell cytotoxicity against dermal sheath cells; format: cell-based, mouse
Procedure: In vitro cytotoxicity assays. Determination of specific killing of target cells was performed using CFSE-labeled DS cells at targets mixed with different ratios of effector cells incubated for 5 hours at 37° C. 5% CO2 with or without neutralizing rat anti-mouse NKG2D antibody (20 ug/ml) (Biolegend, CX5). Specific lysis of DS cells was determined flow cytometrically by measuring cell death of CFSE+DS cells using Annexin V/7-AAD.

[7] = C3H/HeJ, mouse, in vivo, 10 mg/kg/day
[8] = tested on: IL-15 triggered pSTAT3 activation; assay: IL-15-induced Stat3 activation in T cells; format: cell-based; details: T cells / CTL effectors
[9] = tested on: alopecia areata in grafted C3H/HeJ mice; details: for CD8+NKG2D+ T cells in skin and cutaneous lymph nodes: flow cytometry; for ALADIN score / transcriptional signature / GEDI (CTL and IFN signatures): skin; for development / onset of alopecia areata: systemic treatment from time of grafting
Text: Alopecia areata is graded based on severity, location of inflammatory cells, types and relative numbers of inflammatory cells (granulocytes, mast cells, lymphocytes), follicular dystrophy, etc.
Protocol #1: In the prevention setting, recipient mice will be treated beginning the first week after grafting.
Transfer of Alopecia Areata using grafted C3H/HeJ skin. Normal-haired C3H/HeJ mice were grafted at 8 weeks of age (during the second telogen) with skin from a C3H/HeJ mouse that developed AA spontaneously, as described previously^7. In brief, mice spontaneously affected with AA were euthanized, full thickness skin grafts of approximately 2 cm in diameter were removed and grafted to normal-haired C3H/HeJ mice.
Flow cytometric analysis of skin and cutaneous lymph nodes. To make a single cell suspension of mouse skin, fat was removed from the overlying skin in cold PBS and then incubated in collagenase type I (2 mg/ml in PBS) at 32° C. for 75 minutes. After digestion the skin was minced in RPMI/10% fetal bovine serum, filtered through a 70 mM cell strainer, and centrifuged at 1100 g for 5 minutes. The pellet was resuspended in RPMI/10% fetal bovine serum, filtered through a 40 mM cell strainer and spun at 400 g for 5 mins. The pellet was resuspended in FACs buffer (PBS/5% BSA), DAPI to gate on live cells and staining antibodies (listed in Supplemental Data). Cutaneous lymph nodes were pooled minced in RPMI, filtered through a 40 mM cell strainer, centrifuged at 400 g for 5 minutes stained and analysed on a BD LSR II flow cytometer.
Prevention and Treatment Studies. For prevention studies, mice were treatment beginning the day of grafting (n=5-10 mice per group).
(§1) ALADIN scores. The IFN and CTL signatures were used to develop a bivariate score statistic. Individual signature IFN and CTL scores were determined following procedures used in human SLE^,S9,S10. The sets of genes selected to comprise our IFN and CTL signatures were CD8A, GZMB, and ICOS for the CTL signature, and CXCL9, CXCL10, CXCL11, STAT1, and MX1 for the IFN signature. The scores for the prevention mice were calculated in relation to the sham mice; whereas, the scores for the topical treatment experiments were calculated relative to all the samples at week zero.

human embryonic scalp = assay: drug treatment of human fetal scalp in vitro, hair follicle morphogenesis; format: cell-based; design: dose or concentration left out as unconfirmed; details: human embryonic scalp at 20 weeks, vs DMSO
Text: Skin was harvested and sectioned and assessed for hair follicle morphology.

[10] = tested on: C3H/HeJ mice with long-standing alopecia areata; details: for hair regrowth / reversal of alopecia areata: systemic (pump), established AA; for CD8+NKG2D+ T cells in skin and cutaneous lymph nodes: flow cytometry
Procedure: (§2) To make a single cell suspension of mouse skin, fat was removed from the overlying skin in cold PBS and then incubated in collagenase type I (2 mg/ml in PBS) at 32° C. for 75 minutes. After digestion the skin was minced in RPMI/10% fetal bovine serum, filtered through a 70 mM cell strainer, and centrifuged at 1100 g for 5 minutes. The pellet was resuspended in RPMI/10% fetal bovine serum, filtered through a 40 mM cell strainer and spun at 400 g for 5 mins. The pellet was resuspended in FACs buffer (PBS/5% BSA), DAPI to gate on live cells and staining antibodies (listed in Supplemental Data). Cutaneous lymph nodes were pooled minced in RPMI, filtered through a 40 mM cell strainer, centrifuged at 400 g for 5 minutes stained and analysed on a BD LSR II flow cytometer.

[11] = tested on: C3H/HeJ mice with long-standing AA; details: for CD8+NKG2D+ T cells in treated skin: flow cytometry
Procedure: as §2, §1

IL-15 signaling = details: human whole blood assays; cited from earlier work
[12] = topical vs systemic administration

For `N#CCC(C1CCCC1)n1cc(-c2ncnc3[nH]ccc23)cn1` (stereo not drawn) [INCB018424], the “half-life (t1/2)” value [1] is given as 3 to 6 h, the “Adverse event: Abdominal pain, number” value [2] is given as 3 and the “Adverse event: Abdominal pain, value in brackets” value [2] is given as “(2.0)”. The “Adverse event: Application site irritation, pruritus, number” value [2] was 14, the “Adverse event: Application site irritation, pruritus, value in brackets” value [2] was “(9.3)” and the “Adverse event: Back Pain, value in brackets” value [2] was “(3.4)”. The “Adverse event: Headache, number” value [2] was 4, the “Adverse event: Headache, value in brackets” value [2] was “(2.7)” and the “Adverse event: Influenza, number” value [2] was 4. For the same compound, the “Adverse event: Influenza, value in brackets” value [2] was “(2.7)”, the “Adverse event: Nasopharyngitis, number” value [2] was 10 and the “Adverse event: Nasopharyngitis, value in brackets” value [2] was “(6.7)”. The “Adverse event: Sinusitis, number” value [2] was 6, the “Adverse event: Sinusitis, value in brackets” value [2] was “(4.0)” and the “Adverse event: Upper respiratory tract infection, number” value [2] was 10. The “Adverse event: Upper respiratory tract infection, value in brackets” value [2] was “(6.7)”, the clinical responses ([3]; psoriasis subjects, topical) was “rapid clinical responses” and the “cutaneous Th1/Th17 cytokine responses” value ([3]; psoriasis subjects, topical) was “normalization”. For the same compound, the “Th1 and Th17 transcript markers and keratin 16” value ([3]; topical treatment) was “decreased”, the “Total Lesion Score, decrease over vehicle” value [4] was no less than 2 × and the “epidermal thickening and dermal inflammation” value [5] was “markedly reduces”. The pathological skin thinning [5] was “No pathological skin thinning is observed”.
With `CNC1CCC(N(Cc2cccc(-c3ccncc3)c2)C(=O)c2sc3ccccc3c2Cl)CC1` (stereo not drawn) [SAG] the “time to induction of anagen” value ([6]; post treatment) was 4 to 7 days and the “proliferation in the telogen hair follicle (Ki67) / keratinocyte matrix cells” value [6] was “marked proliferation”.
For `CC1CCN(C(=O)CC#N)CC1N(C)c1ncnc2[nH]ccc12` (stereo not drawn) [tofacitinib], the “IL-15-induced LAK cell cytotoxic function (dermal sheath cell cytotoxicity)” value (dermal sheath cells) was “inhibit”, the serum levels [7] was 30 to 40 nM and the “IL-15-induced Stat3 (pSTAT3) activation” value [8] was “block; also recorded: inhibits”. For the same compound, the “development of cutaneous lymphadenopathy” value ([9]; 10 mg/kg/day Alzet pump, 5 mice) was “None”, the “CD8+NKG2D+ T cells in skin and cutaneous lymph nodes” value [9] was “eliminated; also recorded: prevented” and the “IFN-response chemokines and markers of CD8 cytotoxic effectors in skin” value ([9]; microarray, 13 weeks of treatment vs PBS) was “elimination”. The “HF NKG2DL expression (e.g. H60 by immunostain)” value ([9]; mouse, in vivo) was “reduced although not completely eliminated”, the “durability of disease prevention after treatment withdrawal” value ([9]; mouse, in vivo) was 12 weeks and the “histological signs of inflammation in skin” value ([9]; mouse, in vivo) was “no histological signs of inflammation”. For the same compound, the “inflammatory biomarkers in the skin, including MHC molecules and IFN signature” value ([9]; mouse, in vivo) was “down-regulated”, the inflammatory infiltrate ([9]; photomicrographs, FIG. 53) was “normalizes” and the “ALADIN score / transcriptional signature” value [9] was “prevented the emergence”. For the same compound, the “GEDI (CTL and IFN signatures)” value [9] was “prevented the emergence”, the “development / onset of alopecia areata” value [9] was “prevents and None and prevented and inhibited” and the “development / onset of alopecia areata” value ([9]; listed as CP690550) was “prevention of AA”. The “hair follicle morphology, stage of first anagen of morphogenesis” value (human embryonic scalp) was “more advanced”, the “hair regrowth / reversal of alopecia areata” value (“hair regrowth / reversal” below) [10] was “complete” and the “disease recurrence after treatment withdrawal” value ([11]; additional 8 weeks after withdrawal) was “no evidence of disease recurrence”. For the same compound, the “untreated areas on the abdomen” value ([11]; drug applied to back skin only) was “remained alopecic”, the “CD8+NKG2D+ T cells in treated skin” value [11] was “disappearance” and the ALADIN transcriptional signature ([11]; mouse, in vivo) was “normalization”. The “durability of effects after cessation of treatment” value ([11]; mouse, in vivo) was 2-3 months, the “histological markers of disease” value ([11]; mouse, in vivo) was “reversal” and the “time to full coat of hair” value ([11]; topical 0.5% daily) was no more than 7 weeks. The “time to complete hair regrowth” value ([11]; topical therapy) was no more than 12 weeks, the “reversal of established / long-standing AA” value ([11]; topical, daily, 0.5%) was “highly effective; also recorded: reversal” and the IL-15 signaling (IL-15 signaling) was “inhibit”. The durability of effect ([6]; 1% daily for 3 weeks) was “more than 1 month”, the “number of hair follicles vs vehicle treated” value ([6]; mouse, in vivo) was “greater” and the “thickness of hair follicles vs vehicle treated” value ([6]; mouse, in vivo) was “greater”. The induction of anagen [6] was “marked induction of anagen” and the “proliferation in the telogen hair follicle (Ki67) / keratinocyte matrix cells” value [6] was “marked proliferation”.
For tofacitinib, the “CD8+NKG2D+ T cells in skin and cutaneous lymph nodes” value ([9]; listed as JAK3 PTKi) was “eliminating expansion”, the “CD8+NKG2D+ T cells in skin and cutaneous lymph nodes” value ([9]; listed as JAK3i) was “significantly decreased” and the “CD8+NKG2D+ T cells in skin and cutaneous lymph nodes” value ([9]; listed as JAK3 inhibitor) was “completely eliminated”. For the same compound, the “expression of CD4, CD8, MHC class I and II in skin” value ([9]; immunohistochemical staining) was “significantly decreased”, the “inflammatory biomarkers in the skin, including MHC molecules and IFN signature” value ([9]; mouse, in vivo) was “ablating” and the “inflammatory profiles (skin microarray, T cell infiltrate stains, serum markers)” value ([9]; osmotic pump) was “decreased inflammatory profiles”. For the same compound, the “mice that developed alopecia” value ([9]; osmotic pump, by six weeks following transplantation, PBS 4/4, vehicle pump 2/2) was 0/5, the “ALADIN score / transcriptional signature” value [9] was “normalization” and the “GEDI (CTL and IFN signatures)” value [9] was “reduction”. The “development / onset of alopecia areata” value ([9]; listed as JAK3 PTKi) was “effectively prevented”, the “development / onset of alopecia areata” value ([9]; listed as JAK3 inhibitor) was “do not develop alopecia” and the “CD8+NKG2D+ T cells in skin and cutaneous lymph nodes” value ([10]; listed as JAK3i) was “eliminated”. For the same compound, the “CD8+NKG2D+ T cells in skin and cutaneous lymph nodes” value ([10]; listed as JAK3 inhibitor) was “elimination; also recorded: devoid”, the “persistence of effect after cessation of treatment” value ([10]; mouse, in vivo) was 2-3 months and the “hair regrowth / reversal” value ([10]; listed as JAK3i) was “induced hair regrowth all over the body”. For the same compound, the “hair regrowth / reversal” value ([10]; listed as JAK3 inhibitor) was “exhibit hair regrowth”, the “CD8+NKG2D+ T cells in treated skin” value [11] was “significantly decreased” and the “pigmentation of regrown hair coat” value [11, 12] was “darkly pigmented”. For the same compound, the “speed of hair regrowth” value [11, 12] was “very rapid”, the “effect on anagen induction compared with SAG” value ([6]; mouse, in vivo) was “comparable” and the “time to induction and growth of robust pigmented anagen hairs” value ([6]; mouse, in vivo) was 1-2 weeks. The induction of anagen [6] was “striking anagen induction”.
